Reference: ChEMBL document CHEMBL5226353, “Cytotoxic Activities of 9,10-seco-Cycloartane-Type Triterpenoids from the Chinese Liverwort Lepidozia reptans” (J Nat Prod, 2021)
Where a name gives a salt, the structure may show the parent alone.

Key:
A549 = test: Cytotoxicity against human A549 cells assessed as inhibition of cell growth incubated for 48 hrs by MTT assay; format: functional, cell-based; settings: A549, 48 h
NCI-H446 = test: Cytotoxicity against human NCI-H446 cells assessed as inhibition of cell growth incubated for 48 hrs by MTT assay; format: functional, cell-based; settings: NCI-H446, 48 h
PC-3 [1] = test: Cytotoxicity against human PC-3 cells assessed as inhibition of cell growth incubated for 48 hrs by MTT assay; format: functional, cell-based; settings: PC-3, 48 h
NCI-H3255 = test: Cytotoxicity against human NCI-H3255 cells assessed as inhibition of cell growth incubated for 48 hrs by MTT assay; format: functional, cell-based; settings: NCI-H3255, 48 h
PC-3 [2] = test: Induction of apoptosis in human PC-3 cells assessed as late apoptotic cells at 5 uM measured after 24 hrs by annexinV-FITC staining based flow cytometric analysis (reference value: 1.87 %); format: functional
PC-3 [3] = test: Induction of apoptosis in human PC-3 cells assessed as early apoptotic cells at 2.5 uM measured after 24 hrs by annexinV-FITC staining based flow cytometric analysis (reference value: 0.12 %); format: functional
PC-3 [4] = test: Induction of apoptosis in human PC-3 cells assessed as viable cells up to 10 uM measured at 8 hrs by annexinV-FITC staining based flow cytometric analysis (reference value: 91.1 %); format: functional
PC-3 [5] = test: Induction of apoptosis in human PC-3 cells assessed as early apoptotic cells up to 10 uM measured at 12 hrs by annexinV-FITC staining based flow cytometric analysis (reference value: 0.55 %); format: functional
PC-3 [6] = test: Induction of apoptosis in human PC-3 cells assessed as necrotic cells up to 10 uM measured at 12 hrs by annexinV-FITC staining based flow cytometric analysis (reference value: 3.69 %); format: functional
PC-3 [7] = test: Induction of apoptosis in human PC-3 cells assessed as late apoptotic cells up to 10 uM measured at 8 hrs by annexinV-FITC staining based flow cytometric analysis (reference value: 4.64 %); format: functional
PC-3 [8] = test: Induction of mitochondrial membrane potential loss in human PC-3 cells at 4 uM measured after 24 hrs by JC-1 dye-based flow cytometric analysis (reference value: 100 %); format: functional
PC-3 [9] = test: Induction of apoptosis in human PC-3 cells assessed as late apoptotic cells at 10 uM measured after 24 hrs by annexinV-FITC staining based flow cytometric analysis (reference value: 1.87 %); format: functional
PC-3 [10] = test: Induction of apoptosis in human PC-3 cells assessed as early apoptotic cells up to 10 uM measured at 4 hrs by annexinV-FITC staining based flow cytometric analysis (reference value: 0.55 %); format: functional
PC-3 [11] = test: Induction of apoptosis in human PC-3 cells assessed as early apoptotic cells up to 10 uM measured at 2 hrs by annexinV-FITC staining based flow cytometric analysis (reference value: 0.55 %); format: functional
PC-3 [12] = test: Induction of apoptosis in human PC-3 cells assessed as late apoptotic cells up to 10 uM measured at 24 hrs by annexinV-FITC staining based flow cytometric analysis (reference value: 4.64 %); format: functional
PC-3 [13] = test: Induction of apoptosis in human PC-3 cells assessed as viable cells up to 10 uM measured at 4 hrs by annexinV-FITC staining based flow cytometric analysis (reference value: 91.1 %); format: functional
PC-3 [14] = test: Induction of apoptosis in human PC-3 cells assessed as early apoptotic cells up to 10 uM measured at 24 hrs by annexinV-FITC staining based flow cytometric analysis (reference value: 0.55 %); format: functional
PC-3 [15] = test: Induction of apoptosis in human PC-3 cells assessed as viable cells up to 10 uM measured att 12 hrs by annexinV-FITC staining based flow cytometric analysis (reference value: 91.1 %); format: functional
PC-3 [16] = test: Induction of apoptosis in human PC-3 cells assessed as early apoptotic cells at 5 uM measured after 24 hrs by annexinV-FITC staining based flow cytometric analysis (reference value: 0.12 %); format: functional
PC-3 [17] = test: Induction of apoptosis in human PC-3 cells assessed as viable cells at 2.5 uM measured after 24 hrs by annexinV-FITC staining based flow cytometric analysis (reference value: 92.9 %); format: functional; settings: read-out: Activity
PC-3 [18] = test: Induction of apoptosis in human PC-3 cells assessed as late apoptotic cells at 2.5 uM measured after 24 hrs by annexinV-FITC staining based flow cytometric analysis (reference value: 1.87 %); format: functional
PC-3 [19] = test: Induction of apoptosis in human PC-3 cells assessed as necrotic cells up to 10 uM measured at 2 hrs by annexinV-FITC staining based flow cytometric analysis (reference value: 3.69 %); format: functional
PC-3 [20] = test: Induction of apoptosis in human PC-3 cells assessed as necrotic cells up to 10 uM measured at 8 hrs by annexinV-FITC staining based flow cytometric analysis (reference value: 3.69 %); format: functional
PC-3 [21] = test: Induction of apoptosis in human PC-3 cells assessed as late apoptotic cells up to 10 uM measured at 2 hrs by annexinV-FITC staining based flow cytometric analysis (reference value: 4.64 %); format: functional
PC-3 [22] = test: Induction of apoptosis in human PC-3 cells assessed as viable cells at 10 uM measured after 24 hrs by annexinV-FITC staining based flow cytometric analysis (reference value: 92.9 %); format: functional; settings: read-out: Activity
PC-3 [23] = test: Induction of apoptosis in human PC-3 cells assessed as early apoptotic cells up to 10 uM measured at 8 hrs by annexinV-FITC staining based flow cytometric analysis (reference value: 0.55 %); format: functional
PC-3 [24] = test: Induction of apoptosis in human PC-3 cells assessed as early apoptotic cells at 10 uM measured after 24 hrs by annexinV-FITC staining based flow cytometric analysis (reference value: 0.12 %); format: functional
PC-3 [25] = test: Induction of apoptosis in human PC-3 cells assessed as necrotic cells up to 10 uM measured at 4 hrs by annexinV-FITC staining based flow cytometric analysis (reference value: 3.69 %); format: functional
PC-3 [26] = test: Induction of apoptosis in human PC-3 cells assessed as viable cells up to 10 uM measured at 2 hrs by annexinV-FITC staining based flow cytometric analysis (reference value: 91.1 %); format: functional
PC-3 [27] = test: Induction of apoptosis in human PC-3 cells assessed as necrotic cells up to 10 uM measured at 24 hrs by annexinV-FITC staining based flow cytometric analysis (reference value: 3.69 %); format: functional
PC-3 [28] = test: Induction of apoptosis in human PC-3 cells assessed as necrotic cells at 2.5 uM measured after 24 hrs by annexinV-FITC staining based flow cytometric analysis (reference value: 5.09 %); format: functional
PC-3 [29] = test: Induction of apoptosis in human PC-3 cells assessed as viable cells up to 10 uM measured att 24 hrs by annexinV-FITC staining based flow cytometric analysis (reference value: 91.1 %); format: functional
PC-3 [30] = test: Induction of apoptosis in human PC-3 cells assessed as necrotic cells at 10 uM measured after 24 hrs by annexinV-FITC staining based flow cytometric analysis (reference value: 5.09 %); format: functional
PC-3 [31] = test: Induction of apoptosis in human PC-3 cells assessed as late apoptotic cells up to 10 uM measured at 12 hrs by annexinV-FITC staining based flow cytometric analysis (reference value: 4.64 %); format: functional
PC-3 [32] = test: Induction of mitochondrial membrane potential loss in human PC-3 cells at 6 uM measured after 24 hrs by JC-1 dye-based flow cytometric analysis (reference value: 100 %); format: functional
PC-3 [33] = test: Induction of apoptosis in human PC-3 cells assessed as late apoptotic cells up to 10 uM measured at 4 hrs by annexinV-FITC staining based flow cytometric analysis (reference value: 4.64 %); format: functional
PC-3 [34] = test: Induction of apoptosis in human PC-3 cells assessed as increase in ROS levels at measured after 24 hrs by DCFH-DA staining based flow cytometry assay; format: functional, cell-based; settings: dose <= 10.0 µM
PC-3 [35] = test: Induction of apoptosis in human PC-3 cells assessed as viable cells at 5 uM measured after 24 hrs by annexinV-FITC staining based flow cytometric analysis (reference value: 92.9 %); format: functional; settings: read-out: Activity
PC-3 [36] = test: Induction of mitochondrial membrane potential loss in human PC-3 cells at 2 uM measured after 24 hrs by JC-1 dye-based flow cytometric analysis (reference value: 100 %); format: functional
PC-3 [37] = test: Induction of apoptosis in human PC-3 cells assessed as necrotic cells at 5 uM measured after 24 hrs by annexinV-FITC staining based flow cytometric analysis (reference value: 5.09 %); format: functional

`CC(C)=CCC[C@@H](C)[C@H]1[C@H](O)C[C@@]2(C)[C@@H]3CC[C@H]4C(C)(C)[C@@H](O)CC[C@]4(O)CC3=CC[C@]12C` showed an IC50 (A549) of 7 µM, an IC50 (NCI-H446) of 7.5 µM and an IC50 (PC-3 [1]) of 6.5 µM. The IC50 (NCI-H3255) was 9.4 µM.
With `C=C(C)C(=O)CC[C@@H](C)[C@H]1[C@H](O)C[C@@]2(C)[C@@H]3CC[C@H]4C(C)(C)[C@@H](O)CC[C@]4(O)CC3=CC[C@]12C` the Activity (PC-3 [2]) was 3.81%, the Activity (PC-3 [3]) was 0.29% and the Activity (PC-3 [4]) was 88.8%. It also gave an Activity (PC-3 [5]) of 2.63%, an Activity (PC-3 [6]) of 3.48% and an Activity (PC-3 [7]) of 5.96%. For the same molecule, the Activity (PC-3 [8]) was 71.5%, the Activity (PC-3 [9]) was 40.3% and the Activity (PC-3 [10]) was 0.39%. It also gave an Activity (PC-3 [11]) of 0.33%, an Activity (PC-3 [12]) of 9.45% and an Activity (PC-3 [13]) of 87.1%. For the same molecule, the Activity (PC-3 [14]) was 3.3%, the Activity (PC-3 [15]) was 86.5% and the Activity (PC-3 [16]) was 1.64%. For the same molecule, the viability at 2.5 µM (PC-3 [17]) was 93.2%, the Activity (PC-3 [18]) was 2.06% and the Activity (PC-3 [19]) was 6.41%. For the same molecule, the Activity (PC-3 [20]) was 4.5%, the IC50 (A549) was 4.4 µM and the Activity (PC-3 [21]) was 4.82%. The viability at 10 µM (PC-3 [22]) was 45%, the IC50 (NCI-H446) was 5 µM and the Activity (PC-3 [23]) was 0.76%. For the same molecule, the Activity (PC-3 [24]) was 0.78%, the Activity (PC-3 [25]) was 6.67% and the Activity (PC-3 [26]) was 88.4%. For the same molecule, the IC50 (PC-3 [1]) was 4.2 µM, the Activity (PC-3 [27]) was 4.25% and the Activity (PC-3 [28]) was 4.44%. The Activity (PC-3 [29]) was 83%, the Activity (PC-3 [30]) was 12.9% and the Activity (PC-3 [31]) was 7.37%. For the same molecule, the Activity (PC-3 [32]) was 16.8%, the Activity (PC-3 [33]) was 5.8% and the IC50 (NCI-H3255) was 5.7 µM. For the same molecule, the Activity (PC-3 [34]) was “Dose-Dependent Effect”, the viability at 5 µM (PC-3 [35]) was 91.9% and the Activity (PC-3 [36]) was 85.2%. For the same molecule, the Activity (PC-3 [37]) was 2.68%.
`C=C(C[C@@H](C)[C@H]1[C@H](O)C[C@@]2(C)[C@@H]3CC[C@H]4C(C)(C)[C@@H](O)CC[C@]4(O)CC3=CC[C@]12C)C(C)C` showed an IC50 (A549) of 8.8 µM, an IC50 (NCI-H446) of 9.6 µM and an IC50 (PC-3 [1]) of 8.6 µM. It also gave an IC50 (NCI-H3255) greater than 10 µM.
`COc1cccc2c1C(=O)c1c(O)c3c(c(O)c1C2=O)C[C@@](O)(C(=O)CO)C[C@@H]3O[C@H]1C[C@H](N)[C@H](O)[C@H](C)O1` [DOXORUBICIN HYDROCHLORIDE] gave an IC50 (A549) of 1.2 µM, an IC50 (NCI-H446) of 1.7 µM and an IC50 (PC-3 [1]) of 0.4 µM. For the same molecule, the IC50 (NCI-H3255) was 1.5 µM.
